We go through twelve molecules from ChEMBL document CHEMBL3045202, “Synthesis of some bisindolyl analogs for in vitro cytotoxic and DNA cleavage studies” (Med Chem Res, 2013).

The subject of one assay is A549. Description: Cytotoxicity against Homo sapiens (human) A549 cells by MTT assay. The assay is classed as functional, cell-based.
A further assay deals with Escherichia coli. Description: Induction of DNA cleavage in Escherichia coli at 1 ug/ml after 2 hr by agarose gel electrophoretic analysis.
Another assay relates to HeLa. Description: Cytotoxicity against Homo sapiens (human) HeLa cells by MTT assay. The assay is classed as functional, cell-based. Background: Tetrazolium dyes change colour on reduction, which living cells bring about.
In another assay the test system is HEp-2. Description: Cytotoxicity against Homo sapiens (human) Hep2 cells by MTT assay. It is filed as functional, cell-based.

For orientation: IC50 means the concentration at which inhibition is half-maximal. A lower IC50 goes with greater potency in that assay.

The structures appear in SMILES notation. The source made the active and inactive calls. No cut-off for these calls is given here.

As for `CC1=NNC(=O)C1C(c1c(-c2ccccc2)[nH]c2ccccc12)c1c(-c2ccccc2)[nH]c2ccc(Cl)cc12` (stereo not drawn), the IC50 in the assay with A549 was 31.3 µM; in the assay on HeLa it was 29.8 µM; in the assay on HEp-2, 41.7 µM. Also, in the assay on Escherichia coli, the result was Active.

Turning to `COc1ccc2[nH]c(-c3ccccc3)c(C(c3c(-c4ccccc4)[nH]c4ccc(Cl)cc34)C3C(=O)NN=C3C)c2c1` (stereo not drawn), the 50% inhibitory concentration (IC50) in the assay with A549 stood at 1.1 µM; in the assay with HeLa, 1.2 µM; in the assay on HEp-2, 6.2 µM. In addition, in the assay on Escherichia coli, the outcome was Active.

As to `COc1cccc2c1C(=O)c1c(O)c3c(c(O)c1C2=O)C[C@@](O)(C(=O)CO)C[C@@H]3O[C@H]1C[C@H](N)[C@H](O)[C@H](C)O1` [DOXORUBICIN], in the assay with HeLa, the half-inhibitory concentration (IC50) turned out to be 0.71 µM.

In the case of `COc1ccc2[nH]c(-c3ccccc3)c(C(c3c(-c4ccccc4)[nH]c4ccc(C)cc34)C3C(=O)NN=C3C)c2c1` (stereo not drawn), the IC50 in the assay with A549 is 1.8 µM; in the assay on HeLa, greater than 100 µM; in the assay on HEp-2, 3.5 µM. In addition, in the assay with Escherichia coli, the result was Active.

On to `CC1=NNC(=O)C1C(c1c(-c2ccccc2)[nH]c2ccc(C)cc12)c1c(-c2ccccc2)[nH]c2ccc(Cl)cc12` (stereo not drawn), for which the IC50 in the assay on A549 is 35 µM; in the assay with HeLa, greater than 100 µM; in the assay with HEp-2, 32.4 µM.

Take `CC1=NNC(=O)C1C(c1c(-c2ccccc2)[nH]c2ccccc12)c1c(-c2ccccc2)[nH]c2ccc(C)cc12` (stereo not drawn): the IC50 in the assay on A549 was 22.1 µM; with HeLa, greater than 100 µM; in the assay on HEp-2, greater than 100 µM.

Consider `CC1=NNC(=O)C1C(c1c[nH]c2ccccc12)c1c(-c2ccccc2)[nH]c2ccc(Cl)cc12` (stereo not drawn), for which the IC50 was 1.6 µM with A549, 3.8 µM in the assay with HeLa and greater than 100 µM in the assay with HEp-2.

Turning to `COc1ccc2[nH]c(-c3ccccc3)c(C(c3c[nH]c4ccccc34)C3C(=O)NN=C3C)c2c1` (stereo not drawn), the IC50 in the assay with A549 turned out to be 2.7 µM; in the assay with HeLa it was 1.7 µM; in the assay on HEp-2, 5.3 µM.

Consider `CC1=NNC(=O)C1C(c1c[nH]c2ccccc12)c1c(-c2ccccc2)[nH]c2ccc(C)cc12` (stereo not drawn), for which the results for the IC50 with A549, in the assay with HeLa and in the assay with HEp-2 were 1.3 µM, 2.4 µM and 3.2 µM, respectively. Moreover, in the assay with Escherichia coli, the result was Active.

Consider `CC1=NNC(=O)C1C(c1c[nH]c2ccccc12)c1c(-c2ccccc2)[nH]c2ccccc12` (stereo not drawn), for which the IC50 was found to be 5.5 µM in the assay with A549, 7.7 µM with HeLa and 6.7 µM with HEp-2.

Take `CC1=NNC(=O)C1C(c1c(-c2ccccc2)[nH]c2ccc(Cl)cc12)c1c(-c2ccccc2)[nH]c2ccc(Cl)cc12` (stereo not drawn): the results for the IC50 with A549, with HeLa and with HEp-2 were 7 µM, 9.5 µM and 14.6 µM, respectively.

Turning to `CC1=NNC(=O)C1C(c1c(-c2ccccc2)[nH]c2ccc(C)cc12)c1c(-c2ccccc2)[nH]c2ccc(C)cc12` (stereo not drawn), the figures for the IC50 in the assay on A549, with HeLa and in the assay with HEp-2 were 37 µM, 32.7 µM and greater than 100 µM, respectively.
